The source of these data is US20140220134A1, “METHOD FOR TREATING DIABETES WITH EXTENDED RELEASE FORMULATION OF GLP-1 RECEPTOR AGONISTS” (Astrazeneca Pharamceuticals LP, priority 2011, published 2014).

Where a name gives a salt, the structure may show the parent alone.

A short description of series [1]: Fraction of drug in microparticles and in MCT oil carrier after storage. The format is physicochemical. The text has this: Mixtures ranged from 2% to 10% w/w of the active pharmaceutical ingredient. The mixed powder was transferred to an extruder where the temperature was adjusted according to the chosen polymer. Some polymers needed higher temperatures to produce a melt with good flow properties. The extruder contained twin screws that moved clockwise to produce efficient mixing. The material was extruded through a 1.5 mm orifice, collected, cooled at room temperature, and cut into short strands about 1-2 inches long. These strands were then fed into a 12-tooth rotor mill, followed by a sieving step to produce microparticles of about 20 to 100 microns. The microparticles were collected and stored at 5° C. until further use.
Experimental samples were prepared by dispersing about 50 mg of the microparticles into 0.75 mL of a MCT oil carrier. The samples were stored at 5° C. and 25° C. for two days, two weeks, or one month, at which times representative samples were tested. The fraction of drug that remained in the microparticles and the fraction of drug that partitioned into the MCT oil carrier were determined. Briefly, the samples were centrifuged to separate the microparticles from the MCT oil carrier. Each portion was treated independently to determine the amount of drug it contained. Results are reported on the basis of the percent residing in each independent portion.

A short description of the next series: Solubility in MCT oil. The class given is physicochemical. The conditions noted are these: oil or lipid.
Setting [2] is: PLGA copolymer, 1 Month Storage at 5° C.
Setting [3] is: PLGA copolymer, 1 Month Storage at 25° C.
Setting [4] is: PLGA copolymer, 2 Days Storage at 5° C.
Where [5] appears, read: PLGA copolymer, 2 Days Storage at 25° C.
[6] abbreviates: polycaprolactone/PLGA copolymer, Two Weeks Storage, 5° C.
[7] abbreviates: polycaprolactone/PLGA copolymer, Two Weeks Storage, 25° C.

Turning to davalintide, the “drug in MCT Carrier” value in series [1] (setting [2]) is 0.6%; in series [1] (setting [3]), 0.0%; in series [1] (setting [4]), 0.2%; in series [1] (setting [5]), 0.0%. Also, the “drug in Microparticles” value was found to be 99.4% in series [1] (setting [2]), 100.0% in series [1] (setting [3]), 99.8% in series [1] (setting [4]) and 100.0% in series [1] (setting [5]).
On to bovine serum albumin, for which the “drug in MCT Carrier” value in series [1] (setting [2]), in series [1] (setting [3]), in series [1] (setting [4]) and in series [1] (setting [5]) was 0.0% throughout. Further, the “drug in Microparticles” value in series [1] (setting [2]), in series [1] (setting [3]), in series [1] (setting [4]) and in series [1] (setting [5]) was 100.0% in each case.
Turning to insulin, in series [1] (setting [2]), the “drug in MCT Carrier” value stood at 0.5% and the “drug in Microparticles” value is 99.5%. Further, the “drug in MCT Carrier” value in series [1] (setting [3]) was found to be 0.7%.
As for `CC[C@H](C)[C@H](NC(=O)[C@@H]1CCCN1C(=O)CNC(=O)[C@H](Cc1ccccc1)NC(=O)[C@H](CC(N)=O)NC(=O)[C@H](CC(N)=O)NC(=O)[C@H](CO)NC(=O)[C@H](CO)NC(=O)[C@H](Cc1c[nH]cn1)NC(=O)[C@@H](NC(=O)[C@H](CC(C)C)NC(=O)[C@H](Cc1ccccc1)NC(=O)[C@H](CC(N)=O)NC(=O)[C@H](C)NC(=O)[C@H](CC(C)C)NC(=O)[C@H](CCCNC(=N)N)NC(=O)[C@H](CCC(N)=O)NC(=O)[C@@H](NC(=O)[C@H](C)NC(=O)[C@@H]1CSSC[C@H](NC(=O)[C@@H](N)CCCCN)C(=O)N[C@@H](CC(N)=O)C(=O)N[C@@H]([C@@H](C)O)C(=O)N[C@@H](C)C(=O)N[C@@H]([C@@H](C)O)C(=O)N1)[C@@H](C)O)C(C)C)C(=O)N[C@@H](CC(C)C)C(=O)N1CCC[C@H]1C(=O)N1CCC[C@H]1C(=O)N[C@H](C(=O)N[C@@H](CC(N)=O)C(=O)N[C@H](C(=O)NCC(=O)N[C@@H](CO)C(=O)N[C@@H](CC(N)=O)C(=O)N[C@H](C(=O)N[C@@H](Cc1ccc(O)cc1)C(N)=O)[C@@H](C)O)C(C)C)[C@@H](C)O` [pramlintide], the “drug in MCT Carrier” value in series [1] (setting [2]) came out at 0.3%; in series [1] (setting [3]), 0.0%; in series [1] (setting [4]), 0.0%; in series [1] (setting [5]) it was 0.0%; in series [1] (setting [6]) it was 0.0%; in series [1] (setting [7]), 0.0%. For the same compound, the “drug in Microparticles” value in series [1] (setting [2]) worked out at 99.7%; in series [1] (setting [3]) it was 100.0%; in series [1] (setting [4]), 100.0%; in series [1] (setting [5]) it was 100.0%; in series [1] (setting [6]), 100.0%; in series [1] (setting [7]), 100.0%.
Turning to `O=C(O)c1ccccc1O` [salicylic acid], the “drug in MCT Carrier” value in series [1] (setting [2]) worked out at 0.1%; in series [1] (setting [3]) it was 0.2%; in series [1] (setting [4]), 1.1%; in series [1] (setting [5]), 0.9%. The “drug in Microparticles” value in series [1] (setting [2]) is listed as 99.9%; in series [1] (setting [3]), 99.8%; in series [1] (setting [4]), 98.9%; in series [1] (setting [5]), 99.1%. In addition, the solubility (commonly how much of the substance goes into solution per volume) in the series “Solubility in MCT oil” is greater than 30 mg/mL.
On to `CN(C)c1ccc(O)c2c1C[C@H]1C[C@H]3[C@H](N(C)C)C(O)=C(C(N)=O)C(=O)[C@@]3(O)C(O)=C1C2=O` [minocycline, minocycline HCl], for which the “drug in MCT Carrier” value is 0.1% in series [1] (setting [2]), 0.4% in series [1] (setting [3]), 0.9% in series [1] (setting [4]) and 0.6% in series [1] (setting [5]). For the same compound, the “drug in Microparticles” value in series [1] (setting [2]) is 99.9%; in series [1] (setting [3]), 99.6%; in series [1] (setting [4]) it was 99.1%; in series [1] (setting [5]) it was 99.4%.
With metreleptin, the “drug in MCT Carrier” value in series [1] (setting [2]), in series [1] (setting [3]), in series [1] (setting [4]) and in series [1] (setting [5]) was 0.0% in each case. In addition, the “drug in Microparticles” value in series [1] (setting [2]), in series [1] (setting [3]), in series [1] (setting [4]) and in series [1] (setting [5]) was 100.0% in each case.
With `O=C([O-])c1ccccc1O.[Na+]` [sodium salicylate], the “drug in MCT Carrier” value in series [1] (setting [2]) stood at 1.3%; in series [1] (setting [3]) it was 1.5%; in series [1] (setting [4]), 0.5%; in series [1] (setting [5]) it was 2.3%. Also, the “drug in Microparticles” value in series [1] (setting [2]) is recorded as 98.7%; in series [1] (setting [3]), 98.5%; in series [1] (setting [4]) it was 99.5%; in series [1] (setting [5]), 97.7%.
